For the first assay, the system named is children up to 5 years of age. The experiment in a line: Cross-sectional correlation (GLM) of formula nutrient composition with brain myelination. Format: in vivo, human. To be noted: 5 most used formulas; voxel-wise correlations, p<0.05 corrected; inter-variable correlation threshold 0.9. The method, then: MRI brain scans of infants and children between 0 and 5 years were acquired using a white matter imaging technique. This technique provides a quantitative measure, the Myelin Water Fraction (MWF), which is a surrogate marker of myelin content. When mapped as a function of time across early childhood, myelination trajectories can be generated.
Infant formula composition: six infant formulas fed to infants participating in study were analyzed for their composition/level of myelin-relevant nutrients.
Each infant was scanned using the mcDESPOT (multicomponent Driven Equilibrium Single Pulse Observation of T1 and T2) white matter imaging technique Deoni et al. (Magn. Reson. Med. 2008, 60:1372-1387), which provides a quantitative measure of the myelin water fraction (MWF) at each imaging point throughout the brain. All infants were scanned during natural (i.e. non-sedated) sleep using acoustically-muffled mcDESPOT imaging protocols. Total imaging times ranged from 19 minutes for the youngest toddlers to 24 minutes for the older 4 year-old children.
Following image alignment, non-brain signal removal, and correction for main and transmit magnetic field (B0 and B1) inhomogeneities, a three-pool signal model (comprising the myelin-associated water; intra-extra axonal water; and a non-exchanging free-water pool) was fit to the mcDESPOT data to derive voxel-wise MWF maps.
Each child's map was then non-linearly aligned to a study specific template. White matter masks, corresponding to 5 bilateral regions (frontal, temporal, occipital, parietal, and cerebellar WM) as well as the body, genu, and splenium of the corpus callosum were created from common databases, registered to the common template, and superimposed onto each child's MWF map. Mean values for each region were then determined for each child and used for subsequent developmental analysis and trajectory modeling.
From the cohort described above, children up to 5 years of age that were fed different infant formulas during infancy were included in a large correlation analysis to examine the relationship between formula nutrient composition and brain myelination. The 5 most frequently used formulas in that cohort were analyzed for their nutritional composition. A single general linear model (GLM) was constructed that modeled all quantified nutrients, sphingomyelin, and child age. Voxel-wise correlations were calculated with significance defined as p<0.05 corrected for type 1 error using a cluster based correction approach.
To reduce the number of variables in the model, we examined the inter-variable correlation.
With `[Ca]` [Calcium], the “Nutritional driver for myelination in the final general linear model” value (shortened to “Nutritional driver for myelination”) is recorded as “identified drivers”.

As for `[Mg]` [Magnesium], the “Nutritional driver for myelination” value is “identified drivers”.

In the case of sphingomyelin, the “Nutritional driver for myelination” value was “nutritional drivers for myelination”.

For phosphatidyinositol, the “Nutritional driver for myelination” value was “nutritional drivers for myelination”.

Zinc: the “Nutritional driver for myelination” value is listed as “identified drivers”.

Turning to `C[N+](C)(C)CCO` [Choline], the “Nutritional driver for myelination” value was “identified drivers”.

Turning to `CCCCC/C=C\C/C=C\C/C=C\C/C=C\CCCC(=O)O` [ARA, arachidonic acid], the “Nutritional driver for myelination” value is on record as “identified drivers”.

Consider Vitamin B12, for which the “Nutritional driver for myelination” value was “identified drivers”.

For the molecule `Nc1nc2ncc(CNc3ccc(C(=O)N[C@@H](CCC(=O)O)C(=O)O)cc3)nc2c(=O)[nH]1` [Folic Acid, folic acid], the “Nutritional driver for myelination” value is recorded as “identified drivers”.

As to Iron, the “Nutritional driver for myelination” value is “identified drivers”.

In the case of `[P]` [Phosphorus], the “Nutritional driver for myelination” value was “identified drivers”.

With phosphatidylcholine, the “Nutritional driver for myelination” value is given as “nutritional drivers for myelination”.

Still in this assay, the particulars now being: in particular cerebellum, internal capsule, visual cortex, frontal lobe.
Turning to sphingomyelin, the “Association with myelination (myelin water fraction) over time in the brain” value is on record as “significant association with myelination”.

Source of the values: patent US20180360091A1, “NUTRITIONAL COMPOSITIONS AND INFANT FORMULAS TO PROMOTE MYELINATION IN THE BRAIN” (NESTEC S.A., priority 2015, published 2018).
